Measurements reported in paper PMC6848746 (Psychopharmacology, 2019).
Read-outs that look alike come from different tables or passages of the source.

Experiments:
α2B = molecular target: T1, α2B (Homo sapiens, UniProt P18089); test: Radioligand binding; details: for fold lower affinity for α2B compared to 2-AI: binding, [3H]rauwolscine
T1 sequence (P18089 1-450): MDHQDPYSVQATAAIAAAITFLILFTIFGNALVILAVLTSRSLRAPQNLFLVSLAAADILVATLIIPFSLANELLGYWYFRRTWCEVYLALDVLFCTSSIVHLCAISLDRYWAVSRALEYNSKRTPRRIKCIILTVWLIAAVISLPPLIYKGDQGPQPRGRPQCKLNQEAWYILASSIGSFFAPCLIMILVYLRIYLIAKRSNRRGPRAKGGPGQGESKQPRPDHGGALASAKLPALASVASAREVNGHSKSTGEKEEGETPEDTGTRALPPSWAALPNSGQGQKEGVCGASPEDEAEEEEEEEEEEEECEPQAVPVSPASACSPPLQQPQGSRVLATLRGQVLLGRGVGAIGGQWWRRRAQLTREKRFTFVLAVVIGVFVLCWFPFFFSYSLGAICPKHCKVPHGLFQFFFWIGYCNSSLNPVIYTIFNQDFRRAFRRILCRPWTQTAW

β3 = β3 (Homo sapiens, UniProt P13945); test: Radioligand binding
Chain of β3 (P13945 whole entry): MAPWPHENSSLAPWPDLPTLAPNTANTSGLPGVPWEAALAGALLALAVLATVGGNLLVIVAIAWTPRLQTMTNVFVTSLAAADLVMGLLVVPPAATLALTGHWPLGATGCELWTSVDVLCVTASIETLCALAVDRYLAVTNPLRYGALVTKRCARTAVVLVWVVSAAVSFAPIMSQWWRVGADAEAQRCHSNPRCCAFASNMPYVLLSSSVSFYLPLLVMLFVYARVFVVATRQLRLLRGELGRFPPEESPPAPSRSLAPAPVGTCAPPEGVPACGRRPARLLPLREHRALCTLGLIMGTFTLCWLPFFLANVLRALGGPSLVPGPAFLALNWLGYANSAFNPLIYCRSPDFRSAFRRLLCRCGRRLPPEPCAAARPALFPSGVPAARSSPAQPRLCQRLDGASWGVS

5-HT receptors = test: Primary binding assay at 10 μM, 5-HT receptors; design: species or system Human
DAT [1] = molecular target: DAT (Homo sapiens, UniProt Q01959); details: HEK cells expressing cloned transporters, cited from earlier work; for release of preloaded [3H]DA: at 100 μM, ref Simmler et al. 2014b, Luethi et al. 2017
Chain of DAT (Homo sapiens, UniProt Q01959) (Q01959 whole entry): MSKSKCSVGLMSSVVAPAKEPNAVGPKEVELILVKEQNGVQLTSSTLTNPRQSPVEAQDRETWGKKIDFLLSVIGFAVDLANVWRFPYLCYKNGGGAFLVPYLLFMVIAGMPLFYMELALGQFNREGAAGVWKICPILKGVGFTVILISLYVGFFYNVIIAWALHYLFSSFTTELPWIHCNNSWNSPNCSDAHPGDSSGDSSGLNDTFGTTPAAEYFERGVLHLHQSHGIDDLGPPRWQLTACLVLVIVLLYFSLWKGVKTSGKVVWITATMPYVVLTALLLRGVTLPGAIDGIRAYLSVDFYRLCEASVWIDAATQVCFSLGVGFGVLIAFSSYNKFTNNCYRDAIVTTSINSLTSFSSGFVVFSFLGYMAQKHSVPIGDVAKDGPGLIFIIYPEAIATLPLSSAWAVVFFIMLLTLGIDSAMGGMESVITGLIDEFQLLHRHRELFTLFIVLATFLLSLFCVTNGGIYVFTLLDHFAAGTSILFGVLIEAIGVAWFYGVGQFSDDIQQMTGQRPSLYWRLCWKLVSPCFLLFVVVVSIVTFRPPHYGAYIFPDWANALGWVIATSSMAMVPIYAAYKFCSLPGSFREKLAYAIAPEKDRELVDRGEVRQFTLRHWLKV

NET [2] = molecular target: NET (Homo sapiens, UniProt P23975); details: HEK cells expressing cloned transporters, cited from earlier work; for release of preloaded [3H]NE: at 100 μM, ref Simmler et al. 2014b, Luethi et al. 2017
Chain of NET (Homo sapiens, UniProt P23975) (P23975 whole entry): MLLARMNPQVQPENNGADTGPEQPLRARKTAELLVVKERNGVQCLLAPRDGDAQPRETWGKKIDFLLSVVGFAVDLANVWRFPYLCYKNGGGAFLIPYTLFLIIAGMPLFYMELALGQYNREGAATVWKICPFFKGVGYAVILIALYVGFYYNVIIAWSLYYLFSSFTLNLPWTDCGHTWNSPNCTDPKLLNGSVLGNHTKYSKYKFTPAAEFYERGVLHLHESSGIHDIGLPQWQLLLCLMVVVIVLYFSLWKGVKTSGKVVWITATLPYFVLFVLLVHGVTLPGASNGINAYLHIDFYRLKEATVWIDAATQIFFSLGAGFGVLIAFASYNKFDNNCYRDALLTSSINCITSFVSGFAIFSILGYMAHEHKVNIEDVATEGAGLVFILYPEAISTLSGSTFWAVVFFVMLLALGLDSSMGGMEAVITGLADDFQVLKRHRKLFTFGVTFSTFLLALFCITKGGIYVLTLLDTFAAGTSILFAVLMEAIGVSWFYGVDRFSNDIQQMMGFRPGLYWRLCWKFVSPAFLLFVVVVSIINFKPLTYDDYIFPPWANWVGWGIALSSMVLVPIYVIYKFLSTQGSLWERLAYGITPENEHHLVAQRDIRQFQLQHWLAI

NET [3] = test: NET-mediated release of [3H]MPP+ from rat brain synaptosomes; type: biochemical; details: relative to SERT, synaptosomal release
SERT = SERT (Homo sapiens, UniProt P31645); details: HEK cells expressing cloned transporters, cited from earlier work; for release of preloaded [3H]5-HT: at 100 μM, ref Simmler et al. 2014b, Luethi et al. 2017
Chain of SERT (P31645 whole entry): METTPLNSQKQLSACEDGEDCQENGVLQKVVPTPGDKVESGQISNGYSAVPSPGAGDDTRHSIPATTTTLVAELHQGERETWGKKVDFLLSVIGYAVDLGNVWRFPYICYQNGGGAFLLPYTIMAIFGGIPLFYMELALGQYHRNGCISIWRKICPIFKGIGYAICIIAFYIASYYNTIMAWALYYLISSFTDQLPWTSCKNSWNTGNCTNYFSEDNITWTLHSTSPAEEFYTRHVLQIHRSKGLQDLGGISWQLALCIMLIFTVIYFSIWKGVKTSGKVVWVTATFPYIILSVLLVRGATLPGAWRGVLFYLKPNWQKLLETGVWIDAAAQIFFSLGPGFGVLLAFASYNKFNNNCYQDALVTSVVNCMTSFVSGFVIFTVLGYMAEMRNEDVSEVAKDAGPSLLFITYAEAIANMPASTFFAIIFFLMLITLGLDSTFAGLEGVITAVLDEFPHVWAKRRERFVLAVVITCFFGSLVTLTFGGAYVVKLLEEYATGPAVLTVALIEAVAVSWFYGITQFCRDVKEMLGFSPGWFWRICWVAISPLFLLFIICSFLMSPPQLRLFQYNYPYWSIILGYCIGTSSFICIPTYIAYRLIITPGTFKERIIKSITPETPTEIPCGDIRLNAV

DAT [4] = details: synaptosomal uptake assay; ref Johnson et al. (1991a); cited from earlier work
rats = details: cited from earlier work
NET [5] = details: synaptosomal uptake assay; ref Johnson et al. (1991a); cited from earlier work

Row | SMILES | Ki (α2B) | Ki (β3) | displacement at 5-HT receptors (5-HT receptors) | release of preloaded [3H]DA (DAT [1]) | release of preloaded [3H]NE (NET [2]) | fold lower release potency at NET (NET [3]) | fold lower affinity for α2B compared to 2-AI (α2B) | EC50 (DAT [1]; read-out: release of preloaded [3H]DA EC50, ref Eshleman et al. 2017) | EC50 (NET [2]; read-out: release of preloaded [3H]NE EC50, ref Eshleman et al. 2017) | selectivity for 5-HT vs. DA release (SERT; ref Eshleman et al. 2017) | release of preloaded [3H]5-HT (SERT) | EC50 (SERT; read-out: release of preloaded [3H]5-HT EC50, ref Eshleman et al. 2017) | fold difference [3H]5-HT uptake IC50 vs [3H]DA uptake IC50 (DAT [4]) | place conditioning effect (rats; ref Gatch et al. 2016) | fold difference [3H]5-HT uptake IC50 vs [3H]NE uptake IC50 (NET [5]) | place conditioning effect (rats; ref Marona-Lewicka et al. 1996)
1 | NC1Cc2ccccc2C1 [2-AI, 2-aminoindan] | 211 ± 81 nM | > 10000 nM | < 50% | induced the release | induced the release | – | – | – | – | – | – | – | – | – | – | –
2 | COc1ccc2c(c1)CC(N)C2 (centres unmarked) [5-MeO-AI, 5-methoxy-2-aminoindan] | 1550 nM | > 10000 nM | – | – | – | 6 fold | 5 fold | – | – | – | – | – | – | – | – | –
3 | NC1Cc2cc3c(cc2C1)OCO3 [MDAI, 5,6-methylenedioxy-2-aminoindan] | 1120 nM | > 10000 nM | < 50% | not affected | released | – | – | 24000 nM | 570 nM | ~ 10 fold | released | 2900 nM | 10 fold | conditioned place preference | – | –
4 | COc1cc2c(cc1C)CC(N)C2 (centres unmarked) [MMAI, 5-methoxy-6-methyl-2-aminoindan] | 1230 nM | > 10000 nM | – | – | – | 100 fold | 5 fold | – | – | – | released | – | 93 fold | – | 55 fold | conditioned place aversion
